Measured values: US6423725B1 (dated 2002)
Counter-ions that a name gives are not always drawn.

SMILES	melting point
O=c1[nH]c2ccccc2n1C1CCN(C2(c3ccccc3)CCCCCCCCC2)CC1 (as salt: hydrochloride)	217 °C
O=c1[nH]c2ccccc2n1C1CCN(C2(c3ccccc3)CCCCCCCCCCC2)CC1 (as salt: hydrochloride)	251 °C
O=c1[nH]c2ccccc2n1C1CCN(C2(c3ccccc3)CCCCCCCCCC2)CC1 (as salt: hydrochloride)	196 to 202 °C
O=c1[nH]c2ccccc2n1C1CCN(C2(c3ccc(F)cc3)CCCCCC2)CC1 (as salt: hydrochloride)	185 to 192 °C
COc1ccccc1C1(N2CCC(n3c(=O)[nH]c4ccccc43)CC2)CCCCCC1 (as salt: hydrochloride)	167 to 173 °C
O=c1[nH]c2ccccc2n1C1CCN(C2(c3ccccc3)CCCCCCC2)CC1 (as salt: hydrochloride)	196 °C
O=C(c1ccccc1)c1ccc2c(c1)[nH]c(=O)n2C1CCN(C2(c3ccccc3)CCCCCC2)CC1 (as salt: hydrochloride)	118 to 122 °C
CC1(C)CCC(c2ccccc2)(N2CCC(n3c(=O)[nH]c4ccccc43)CC2)CC1 (as salt: hydrochloride)	256 °C
CC(C)(C)C1CCC(c2ccccc2)(N2CCC(n3c(=O)[nH]c4ccccc43)CC2)CC1 (stereo not drawn) (as salt: hydrochloride)	218 to 219 °C
O=c1[nH]c2ccccc2n1C1CCN(C2(c3cccc(F)c3)CCCCCC2)CC1 (as salt: hydrochloride)	196 to 199 °C
CNCCn1c(=O)n(C2CCN(C3(c4ccccc4)CCCCCC3)CC2)c2ccccc21 (as salt: hydrochloride)	217 °C
COc1ccc(C2(N3CCC(n4c(=O)[nH]c5ccccc54)CC3)CCCCC2)cc1 (as salt: hydrochloride)	193 to 197 °C
O=c1[nH]c2ccccc2n1C1CCN(C2(c3ccccc3)CCCCCCCC2)CC1 (as salt: hydrochloride)	187 °C
CCCC1(N2CCC(n3c(=O)[nH]c4ccccc43)CC2)CCC2(CCCCC2)CC1 (as salt: hydrochloride)	240 to 247 °C
COc1cccc(C2(N3CCC(n4c(=O)[nH]c5ccccc54)CC3)CCCCCC2)c1 (as salt: hydrochloride)	216 to 218 °C
